Test results published in ChEMBL document CHEMBL4196219, “Rare Thioglycosides from the Roots of Wasabia japonica” (J Nat Prod, 2018).

System: BV-2
Experiment: Antiinflammatory activity in mouse BV2 cells assessed as inhibition of LPS-induced nitric oxide production after 24 hrs by Griess reagent based assay
Type: functional, cell-based
Settings: BV-2, 24 h

Molecule `C[C@@H]1CSS[C@@H]2O[C@H](CO)[C@@H](O)[C@H](O)[C@H]2OC1=O` has an IC50 of 41.2 µM.
